In ChEMBL document CHEMBL5725727, “Substituted nicotinamide derivatives as kinase inhibitors” (2017):

Molecular target: Platelet-derived growth factor receptor beta (Homo sapiens, UniProt P09619)
Assay: PDGFRβ Kinase Assay: Biochemical PDGFRβ kinase assays were performed in 96 well microtiter plates that were coated overnight with 75 μg of poly-Glu-Tyr (4:1) in 10 mM Phosphate Buffered Saline (PBS), pH 7.4. The coated plates were washed with 2 mls per well PBS+0.05% Tween-20 (PBS-T), blocked by incubation with PBS containing 1% BSA, then washed with 2 mls per well PBS-T prior to starting the reaction. Reactions were carried out in 100 μL reaction volumes containing 36 μM ATP in kinase buffer (50 mM Hepes buffer pH 7.4, 20 mM MgCl2, 0.1 mM MnCl2 and 0.2 mM Na3VO4). Test compounds were reconstituted in 100% DMSO and added to the reaction to give a final DMSO concentration of 5%. Reactions were initiated by the addition 20 ul per well of kinase buffer containing 200-300 ng purified cytoplasmic domain PDGFR-b protein (Millipore). Following a 60 minute incubation at 30° C., the reactions were washed 2 mls per well PBS-T. 100 μl of a monoclonal anti-phosphotyrosine antibody-peroxidase conjugate diluted 1:10,000 in PBS-T was added to the wells for 30 minutes. Following a 2 mls per well wash with PBS-Tween-20, 100 μl of O-Phenylenediamine Dihydrochloride in phosphate-citrate buffer, containing urea hydrogen peroxide, was added to the wells for 7-10 minutes as a colorimetric substrate for the peroxidase. […]

Sequence of Platelet-derived growth factor receptor beta (P09619 whole entry, the tested form may be a part): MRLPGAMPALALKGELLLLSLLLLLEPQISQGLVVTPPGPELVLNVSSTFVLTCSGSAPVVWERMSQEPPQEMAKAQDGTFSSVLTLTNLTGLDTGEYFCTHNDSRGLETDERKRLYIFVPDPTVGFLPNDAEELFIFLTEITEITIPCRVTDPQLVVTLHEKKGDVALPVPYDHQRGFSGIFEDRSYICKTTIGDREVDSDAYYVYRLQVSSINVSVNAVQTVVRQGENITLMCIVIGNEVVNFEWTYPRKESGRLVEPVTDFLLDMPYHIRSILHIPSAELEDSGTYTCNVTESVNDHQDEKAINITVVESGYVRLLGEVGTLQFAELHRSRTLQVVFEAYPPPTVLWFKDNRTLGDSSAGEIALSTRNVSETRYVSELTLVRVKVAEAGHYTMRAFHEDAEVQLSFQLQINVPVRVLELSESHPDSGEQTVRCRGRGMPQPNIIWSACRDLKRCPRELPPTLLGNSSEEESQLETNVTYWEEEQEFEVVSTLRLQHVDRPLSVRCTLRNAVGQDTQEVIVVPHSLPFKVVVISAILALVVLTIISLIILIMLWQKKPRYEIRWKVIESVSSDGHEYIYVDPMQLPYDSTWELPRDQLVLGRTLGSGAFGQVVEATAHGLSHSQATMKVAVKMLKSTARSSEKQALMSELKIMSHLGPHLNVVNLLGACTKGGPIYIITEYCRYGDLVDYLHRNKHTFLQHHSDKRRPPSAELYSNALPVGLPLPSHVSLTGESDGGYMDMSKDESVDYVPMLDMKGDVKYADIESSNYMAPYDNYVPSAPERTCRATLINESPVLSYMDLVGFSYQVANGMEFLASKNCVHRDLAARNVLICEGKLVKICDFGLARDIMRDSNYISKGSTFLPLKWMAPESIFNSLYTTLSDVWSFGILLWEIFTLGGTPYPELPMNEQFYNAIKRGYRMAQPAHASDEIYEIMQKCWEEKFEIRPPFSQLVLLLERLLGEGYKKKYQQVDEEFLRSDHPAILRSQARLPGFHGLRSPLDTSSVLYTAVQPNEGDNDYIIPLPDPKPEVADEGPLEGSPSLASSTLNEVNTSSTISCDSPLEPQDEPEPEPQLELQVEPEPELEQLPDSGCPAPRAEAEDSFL

Compound: Cc1ccc(F)c(NC(=O)c2cccc(C#Cc3cc(C(=O)N=S4(=O)CCOCC4)cnc3N)c2)c1
- IC50: 11 nM
